Reference: US10112955B2, “Isoindoline, azaisoindoline, dihydroindenone and dihydroazaindenone inhibitors of Mnk1 and Mnk2” (eFFECTOR THERAPEUTICS, INC., priority 2015, dated 2018)

Legend:
MNK2 = MNK2 (Homo sapiens (Human), UniProt Q9HBH9); test: MNK Biochemical Enzymatic Assay (ADP-Glo), MNK2; conditions: 3 nM recombinant MNK2, 50 μM substrate peptide, 10 μM ATP
Method: (§1) Compounds are screened for MNK inhibition using the ADP-Glo kinase assay kit (Promega, catalogue No. V9101). All kinase reactions are performed in Reaction Buffer E (15 mM HEPES pH7.4, 20 mM NaCl, 1 mM EGTA, 10 mM MgCl2, 0.1 mg/ml BGG, and 0.02% Tween-20). […] Final DMSO concentration in each reaction is 1%.
(§2) Kinase reactions are carried out in 96-well half-area white flat-bottom polystyrene plates in a final volume of 25 μl. MNK1/2 enzymes are pre-incubated with compound and peptide substrate for 5 minutes prior to the addition of ATP. After the addition of ATP, kinase reactions are incubated at room temperature for 40 minutes. Reactions are subsequently stopped by the addition of 25 μl of ADP-Glo Reagent and incubating for an additional 40 minutes. The final luminescent signal used for kinase activity readout is produced by the addition of 45 μl of Kinase Detection Reagent (ADP-Glo kit, Promega) and incubating for 40 minutes.

Phosphorylated eIF4E = test: peIF4E Signaling Cellular Assay (CisBio peIF4E HTRF); format: cell-based; conditions: cells incubated with compound for 2 hrs at 37° C., 12-point curve
Method: Phosphorylated eIF4E is assayed using the CisBio peIF4E HTRF® assay kit (CisBio, catalogue No. 64EF4PEG). Cells are plated in 96-well tissue-culture treated plate in appropriate growth medium (90 μL). Compounds (10×) are diluted using 3-fold serial dilutions in cell culture medium and added to cells. Plates are incubated for 2 hrs at 37° C. The cell supernatant is carefully removed either by aspirating supernatant or by flicking the plate. Immediately 50 μL of supplemented lysis buffer (1×) is added and incubated for at least 30 minutes at room temperature under shaking. After homogenization by pipeting up and down, 16 μL of cell lysate is transferred from the 96-well cell-culture plate to a 384-well small volume white plate. 4 μL of premixed antibody solutions (vol/vol) is prepared in the detection buffer and added. The plate is covered with a plate sealer and incubated overnight at room temperature. The fluorescence emissions at two different wavelengths are read (665 nm and 620 nm) on a Wallac Victor2. Emission ratios are converted into percent inhibitions and imported into GraphPad Prism software. […] IC50 values are determined using a nonlinear regression model available in GraphPad Prism 5.

[1] = Pharmacokinetics, single oral gavage administration; format: in vivo; conditions: male Sprague Dawley rats, single oral gavage 10 mg/kg, N = 3/group (Cpd. 71 N = 2), formulation 10% NMP/90% PEG400 (Cpd. 57: 10% DMA/90% PEG300); for AUC(0-inf) / Cmax / Tmax / half-life: rat, plasma
Method: (§3) Groups of Balb/c mice or Sprague-Dawley rats (n≥3 per dose group) are administered single doses of test compound. Compounds are formulated either as solutions in 10% N-methylpyrrolidone, 90% polyethyleneglycol 400 or as suspensions in 0.5% methylcellulose in water for oral gavage administration at a nominal dose level of 10 mg/kg. Compounds are formulated in 10% dimethylisosorbide, 15% ethanol, 35% propylene glycol, and 40% saline (or 40% D5W) for intravenous administration at a nominal dose level of 1 mg/kg. For intravenously dosed animals, blood samples are collected at 0.083, 0.25, 0.5, 1, 2, 4, 8, and 24 h post dose. For orally dosed animals, blood samples are collected at 0.25, 0.5, 1, 2, 4, 8, and 24 h post dose. Blood samples are collected from mice either serially via submandibular vein (approximately 0.1 mL each) or terminally via cardiac puncture (approximately 0.5 mL each). Blood samples are collected serially from rats via jugular vein catheter (approximately 0.2 mL each). Each blood sample is collected into a tube that is chilled and contains potassium EDTA as the anticoagulant. Plasma is separated and stored at approximately −80 C until analysis. Following protein precipitation with acetonitrile containing an internal standard, plasma samples are analyzed using a liquid chromatography/high-resolution mass spectrometry (LC-HRMS) method to determine plasma concentrations. Plasma concentration versus time data are subjected to noncompartmental pharmacokinetic analysis using Phoenix™ Winnonlin® (Certara LP) to determine pharmacokinetic parameters, including Area Under the Curve (AUC), Clearance (Cl), Volume of Distribution at Steady-State (Vss), and terminal half-life (T1/2). Data from orally and intravenously dose are highlighted in Tables 3 and 4, respectively.

[2] = Pharmacokinetics, single intravenous bolus administration; format: in vivo; conditions: rat, plasma, male Sprague Dawley rats, single intravenous bolus 1 mg/kg, N = 3/group, formulation 10% NMP/15% EtOH/35% PEG400/40% D5W (Cpd. 57: 10% DMA/15% EtOH/35% PEG400/40% D5W); for half-life: read-out: T½ (converted); for Vd: read-out: Vss
Method: as §3, with “Compounds are formulated in 10% dimethylisosorbide, 15% ethanol, 35% propylene glycol, and 40% saline (or 40% D5W) for intravenous administration at a nominal dose level of 1 mg/kg.” left out

MNK1 = MNK1 (Homo sapiens (Human), UniProt Q9BUB5); test: MNK Biochemical Enzymatic Assay (ADP-Glo), MNK1; conditions: 10 nM recombinant MNK1, 100 μM substrate peptide, 300 μM ATP; read-out: IC50 Mnk1
Method: as §1, §2

MNK1, sequence (Q9BUB5 whole entry): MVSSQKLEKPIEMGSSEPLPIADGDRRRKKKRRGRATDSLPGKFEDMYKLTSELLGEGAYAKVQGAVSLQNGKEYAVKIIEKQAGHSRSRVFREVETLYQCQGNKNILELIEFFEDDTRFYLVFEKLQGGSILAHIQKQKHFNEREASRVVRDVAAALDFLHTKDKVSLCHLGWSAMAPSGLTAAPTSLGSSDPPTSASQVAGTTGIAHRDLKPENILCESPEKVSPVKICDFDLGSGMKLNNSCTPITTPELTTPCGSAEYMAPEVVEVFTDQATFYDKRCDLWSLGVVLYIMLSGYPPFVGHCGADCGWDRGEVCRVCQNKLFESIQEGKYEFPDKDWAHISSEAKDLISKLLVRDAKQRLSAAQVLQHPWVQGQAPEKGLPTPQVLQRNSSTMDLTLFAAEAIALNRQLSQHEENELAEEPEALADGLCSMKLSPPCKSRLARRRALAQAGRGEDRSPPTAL
MNK2, sequence (Q9HBH9 whole entry): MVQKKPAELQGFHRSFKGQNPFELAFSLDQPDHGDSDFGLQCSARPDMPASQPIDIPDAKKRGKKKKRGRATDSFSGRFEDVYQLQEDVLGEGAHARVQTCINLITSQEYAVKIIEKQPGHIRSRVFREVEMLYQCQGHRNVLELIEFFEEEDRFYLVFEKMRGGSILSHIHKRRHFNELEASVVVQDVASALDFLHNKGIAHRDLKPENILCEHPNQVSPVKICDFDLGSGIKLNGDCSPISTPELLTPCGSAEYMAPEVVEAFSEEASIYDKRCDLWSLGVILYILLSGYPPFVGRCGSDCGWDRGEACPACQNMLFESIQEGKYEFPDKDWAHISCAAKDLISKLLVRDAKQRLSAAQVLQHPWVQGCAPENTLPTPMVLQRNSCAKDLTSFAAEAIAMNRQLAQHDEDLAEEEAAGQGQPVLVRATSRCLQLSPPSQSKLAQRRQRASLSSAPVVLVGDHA

Row | Structure (SMILES) | IC50 (MNK2) | IC50 (Phosphorylated eIF4E) | F [1] | AUC(0-inf) [1] | Cmax [1] | Tmax [1] | half-life [1] | AUC(0-inf) [2] | clearance [2] | half-life [2] | Vd [2] | IC50 (MNK1)
1 | COc1c(N)ncnc1Nc1cc(C)c2c(c1)C1(CCCCC1)NC2=O [Cpd. No. 57, 6′-((6-amino-5-methoxypyrimidin-4-yl)amino)-4′-methylspiro[cyclohexane-1,1′-isoindolin]-3′-one] | < 10 nM | < 50 nM | 14.5% | 2490 ng·h/mL | 584 ng/mL | 0.833 h | 3.27 h | 1720 ng·h/mL | 11.1 mL/min/kg | 7.78 h | 3.46 L/kg | 
2 | Cc1cc(Nc2ncnc(N)c2C)cc2c1C(=O)NC21CCCCC1 [Cpd. No. 55, 6′-((6-amino-5-methylpyrimidin-4-yl)amino)-4′-methylspiro[cyclohexane-1,1′-isoindolin]-3′-one] | 10 to 100 nM | < 50 nM | 25.0% | 2650 ng·h/mL | 425 ng/mL | 4 h | 2.59 h | 1060 ng·h/mL | 16.6 mL/min/kg | 7.34 h | 6.56 L/kg | 
3 | CC1CNC(=O)c2ccc(Nc3ccncn3)cc21 (centres unmarked) [Cpd. No. 22, 4-methyl-6-(pyrimidin-4-ylamino)-3,4-dihydroisoquinolin-1(2H)-one] | 10 to 100 nM | 1000 to 100000 nM |  |  |  |  |  |  |  |  |  | 100 to 10000 nM
4 | CC1CC(=O)c2ccc(Nc3cc(NC(=O)C4CC4)ncn3)cc21 (centres unmarked) [Cpd. No. 19, N-(6-((3-methyl-1-oxo-2,3-dihydro-1H-inden-5-yl)amino)pyrimidin-4-yl)cyclopropanecarboxamide] | 10 to 100 nM | 50 to 1000 nM |  |  |  |  |  |  |  |  |  | < 10 nM
5 | O=C1NCc2cc(Nc3cc(NC(=O)C4CC4)ncn3)ccc21 [Cpd. No. 12, N-(6-((1-oxoisoindolin-5-yl)amino)pyrimidin-4-yl)cyclopropanecarboxamide] | < 10 nM | 50 to 1000 nM |  |  |  |  |  |  |  |  |  | < 10 nM
6 | CC1NC(=O)c2ccc(Nc3ncnc4c3CCN4)cc21 (centres unmarked) [Cpd. No. 39, 5-(6,7-dihydro-5H-pyrrolo[2,3-d]pyrimidin-4-ylamino)-3-methyl-isoindolin-1-one] | 100 to 10000 nM | 1000 to 100000 nM |  |  |  |  |  |  |  |  |  | 10 to 100 nM
7 | Cc1cc(Nc2ccncn2)cc2c1C(=O)NC2C (centres unmarked) [Cpd. No. 33, 3,7-dimethyl-5-(pyrimidin-4-ylamino)isoindolin-1-one] | 10 to 100 nM | 1000 to 100000 nM |  |  |  |  |  |  |  |  |  | 10 to 100 nM
8 | CC1Cc2cc(Nc3ccncn3)ccc2C(=O)N1 (centres unmarked) [Cpd. No. 23, 3-methyl-6-(pyrimidin-4-ylamino)-3,4-dihydroisoquinolin-1(2H)-one] | 10 to 100 nM | 1000 to 100000 nM |  |  |  |  |  |  |  |  |  | 100 to 10000 nM
9 | COc1c(N)ncnc1Nc1cc(C)c2c(n1)C1(CCCCC1)NC2=O [Cpd. No. 72, 2′-((6-amino-5-methoxypyrimidin-4-yl)amino)-4′-methylspiro[cyclohexane-1,7′-pyrrolo[3,4-b]pyridin]-5′(6′H)-one] |  | < 50 nM | 24.2% | 2740 ng·h/mL | 1380 ng/mL | 0.667 h | 2.75 h | 1130 ng·h/mL | 14.8 mL/min/kg | 8.48 h | 4.59 L/kg | 
10 | CC1NC(=O)c2c(Cl)cc(Nc3ccncn3)cc21 (centres unmarked) [Cpd. No. 35, 7-chloro-3-methyl-5-(pyrimidin-4-ylamino)isoindolin-1-one] | < 10 nM | 50 to 1000 nM |  |  |  |  |  |  |  |  |  | < 10 nM
11 | CC1NC(=O)c2cnc(Nc3ccnc(NC(=O)C4CC4)c3)cc21 (centres unmarked) [Cpd. No. 42, N-(4-((1-methyl-3-oxo-2,3-dihydro-1H-pyrrolo[3,4-c]pyridin-6-yl)amino)pyridin-2-yl)cyclopropanecarboxamide] | < 10 nM | 1000 to 100000 nM |  |  |  |  |  |  |  |  |  | < 10 nM
12 | Cc1cc(Nc2ncnc(N)c2Cl)cc2c1C(=O)NC21CCCCC1 [Cpd. No. 58, 6′-((6-amino-5-chloropyrimidin-4-yl)amino)-4′-methylspiro[cyclohexane-1,1′-isoindolin]-3′-one] | < 10 nM | < 50 nM | 27.9% | 1370 ng·h/mL | 417 ng/mL | 0.417 h | 9.15 h | 491 ng·h/mL | 35.3 mL/min/kg | 9.44 h | 13.2 L/kg | 
13 | CC1NC(=O)c2ccc(Nc3ccncn3)cc21 (centres unmarked) [Cpd. No. 8, 3-methyl-5-(pyrimidin-4-ylamino)isoindolin-1-one] | 10 to 100 nM | 1000 to 100000 nM |  |  |  |  |  |  |  |  |  | 10 to 100 nM
14 | CC1(C)NC(=O)c2ccc(Nc3ccncn3)cc21 [Cpd. No. 15, 3,3-dimethyl-5-(pyrimidin-4-ylamino)isoindolin-1-one] | 10 to 100 nM | 1000 to 100000 nM |  |  |  |  |  |  |  |  |  | 100 to 10000 nM
15 | Cc1cc(Nc2ncnc(N)c2C)nc2c1C(=O)NC21CCCCC1 [Cpd. No. 71, 2′-((6-amino-5-methylpyrimidin-4-yl)amino)-4′-methylspiro[cyclohexane-1,7′-pyrrolo[3,4-b]pyridin]-5′(6′H)-one] |  | < 50 nM | 63.9% | 5660 ng·h/mL | 1140 ng/mL | 0.5 h | 2.9 h | 886 ng·h/mL | 19.1 mL/min/kg | 4.15 h | 3.9 L/kg | 
16 | CC1NC(=O)c2ccc(Nc3ncnc4c3OCCN4)cc21 (centres unmarked) [Cpd. No. 38, 5-(7,8-dihydro-6H-pyrimido[5,4-b][1,4]oxazin-4-ylamino)-3-methyl-isoindolin-1-one] | 100 to 10000 nM | 1000 to 100000 nM |  |  |  |  |  |  |  |  |  | 10 to 100 nM
